Values quoted from earlier work in patent US20090239872A1, “TREATMENT OF MESOTHELIOMA” (priority 2002, published 2009).

Experiments:
Conditions in all cases: qualitative statement
Flt-4 = Flt-4 (Homo sapiens, UniProt P35916)
c-Kit = c-Kit (Homo sapiens, UniProt P10721)
Flt-1 = Flt-1 (Homo sapiens, UniProt P17948)
Sequence of Flt-1 (P17948 27-1338, species assumed): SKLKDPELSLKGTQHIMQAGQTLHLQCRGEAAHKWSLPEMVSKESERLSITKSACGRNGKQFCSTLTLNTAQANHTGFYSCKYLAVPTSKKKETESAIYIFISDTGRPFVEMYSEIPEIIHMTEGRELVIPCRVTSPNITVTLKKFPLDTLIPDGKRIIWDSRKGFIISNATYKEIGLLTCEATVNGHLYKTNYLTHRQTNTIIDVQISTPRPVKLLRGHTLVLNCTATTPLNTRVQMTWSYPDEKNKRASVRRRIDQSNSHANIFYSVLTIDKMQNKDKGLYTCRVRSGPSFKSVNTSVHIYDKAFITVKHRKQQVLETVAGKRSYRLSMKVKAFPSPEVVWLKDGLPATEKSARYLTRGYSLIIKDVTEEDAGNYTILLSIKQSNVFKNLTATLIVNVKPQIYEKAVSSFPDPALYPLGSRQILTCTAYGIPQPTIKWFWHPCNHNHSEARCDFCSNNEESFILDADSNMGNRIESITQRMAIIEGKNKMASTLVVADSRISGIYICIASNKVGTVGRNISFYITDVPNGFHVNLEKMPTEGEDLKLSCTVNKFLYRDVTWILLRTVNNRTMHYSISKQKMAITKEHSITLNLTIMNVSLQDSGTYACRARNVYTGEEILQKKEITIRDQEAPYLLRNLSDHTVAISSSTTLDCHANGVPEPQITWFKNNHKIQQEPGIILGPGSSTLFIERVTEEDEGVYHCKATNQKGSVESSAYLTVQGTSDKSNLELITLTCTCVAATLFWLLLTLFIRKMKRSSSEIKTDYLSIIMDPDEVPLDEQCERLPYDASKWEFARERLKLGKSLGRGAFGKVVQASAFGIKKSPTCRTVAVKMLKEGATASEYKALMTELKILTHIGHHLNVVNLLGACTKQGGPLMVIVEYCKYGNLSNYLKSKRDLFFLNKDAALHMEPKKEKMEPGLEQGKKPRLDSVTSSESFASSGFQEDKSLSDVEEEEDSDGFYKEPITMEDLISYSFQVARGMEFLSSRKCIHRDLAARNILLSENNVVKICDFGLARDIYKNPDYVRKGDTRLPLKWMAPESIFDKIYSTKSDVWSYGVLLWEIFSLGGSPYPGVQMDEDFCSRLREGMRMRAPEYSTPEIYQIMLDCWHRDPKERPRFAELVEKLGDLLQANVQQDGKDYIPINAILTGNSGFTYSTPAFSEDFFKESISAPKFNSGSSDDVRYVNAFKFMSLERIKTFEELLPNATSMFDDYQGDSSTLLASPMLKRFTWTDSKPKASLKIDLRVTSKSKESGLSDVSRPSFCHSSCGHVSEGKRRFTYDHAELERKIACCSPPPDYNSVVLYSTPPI

Sequence of c-Kit (P10721 26-976): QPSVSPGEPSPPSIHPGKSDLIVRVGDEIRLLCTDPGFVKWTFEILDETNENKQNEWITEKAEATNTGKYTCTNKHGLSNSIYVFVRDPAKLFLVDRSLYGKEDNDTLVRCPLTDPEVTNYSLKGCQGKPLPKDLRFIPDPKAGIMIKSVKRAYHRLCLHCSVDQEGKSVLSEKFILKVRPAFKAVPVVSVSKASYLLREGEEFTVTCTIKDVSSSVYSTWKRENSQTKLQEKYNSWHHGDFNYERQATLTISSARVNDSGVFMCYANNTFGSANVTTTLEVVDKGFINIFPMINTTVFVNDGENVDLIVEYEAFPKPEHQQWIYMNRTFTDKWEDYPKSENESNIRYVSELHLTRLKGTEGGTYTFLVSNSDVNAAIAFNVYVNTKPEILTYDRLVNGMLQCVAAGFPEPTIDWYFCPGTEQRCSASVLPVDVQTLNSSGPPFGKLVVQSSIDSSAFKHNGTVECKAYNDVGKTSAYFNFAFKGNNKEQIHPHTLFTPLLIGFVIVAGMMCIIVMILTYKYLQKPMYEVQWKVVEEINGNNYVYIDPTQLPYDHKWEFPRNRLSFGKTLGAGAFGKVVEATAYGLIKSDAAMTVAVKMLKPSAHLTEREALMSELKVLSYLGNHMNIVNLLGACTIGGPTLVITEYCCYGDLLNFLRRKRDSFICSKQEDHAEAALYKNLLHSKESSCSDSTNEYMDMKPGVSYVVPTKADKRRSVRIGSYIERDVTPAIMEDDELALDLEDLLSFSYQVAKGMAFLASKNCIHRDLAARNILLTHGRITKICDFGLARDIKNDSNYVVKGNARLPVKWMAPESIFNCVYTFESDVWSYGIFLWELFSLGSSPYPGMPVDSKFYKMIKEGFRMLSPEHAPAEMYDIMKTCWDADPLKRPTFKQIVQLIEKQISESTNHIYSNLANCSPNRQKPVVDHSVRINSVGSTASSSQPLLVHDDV
Sequence of Flt-4 (P35916 25-1363, species assumed): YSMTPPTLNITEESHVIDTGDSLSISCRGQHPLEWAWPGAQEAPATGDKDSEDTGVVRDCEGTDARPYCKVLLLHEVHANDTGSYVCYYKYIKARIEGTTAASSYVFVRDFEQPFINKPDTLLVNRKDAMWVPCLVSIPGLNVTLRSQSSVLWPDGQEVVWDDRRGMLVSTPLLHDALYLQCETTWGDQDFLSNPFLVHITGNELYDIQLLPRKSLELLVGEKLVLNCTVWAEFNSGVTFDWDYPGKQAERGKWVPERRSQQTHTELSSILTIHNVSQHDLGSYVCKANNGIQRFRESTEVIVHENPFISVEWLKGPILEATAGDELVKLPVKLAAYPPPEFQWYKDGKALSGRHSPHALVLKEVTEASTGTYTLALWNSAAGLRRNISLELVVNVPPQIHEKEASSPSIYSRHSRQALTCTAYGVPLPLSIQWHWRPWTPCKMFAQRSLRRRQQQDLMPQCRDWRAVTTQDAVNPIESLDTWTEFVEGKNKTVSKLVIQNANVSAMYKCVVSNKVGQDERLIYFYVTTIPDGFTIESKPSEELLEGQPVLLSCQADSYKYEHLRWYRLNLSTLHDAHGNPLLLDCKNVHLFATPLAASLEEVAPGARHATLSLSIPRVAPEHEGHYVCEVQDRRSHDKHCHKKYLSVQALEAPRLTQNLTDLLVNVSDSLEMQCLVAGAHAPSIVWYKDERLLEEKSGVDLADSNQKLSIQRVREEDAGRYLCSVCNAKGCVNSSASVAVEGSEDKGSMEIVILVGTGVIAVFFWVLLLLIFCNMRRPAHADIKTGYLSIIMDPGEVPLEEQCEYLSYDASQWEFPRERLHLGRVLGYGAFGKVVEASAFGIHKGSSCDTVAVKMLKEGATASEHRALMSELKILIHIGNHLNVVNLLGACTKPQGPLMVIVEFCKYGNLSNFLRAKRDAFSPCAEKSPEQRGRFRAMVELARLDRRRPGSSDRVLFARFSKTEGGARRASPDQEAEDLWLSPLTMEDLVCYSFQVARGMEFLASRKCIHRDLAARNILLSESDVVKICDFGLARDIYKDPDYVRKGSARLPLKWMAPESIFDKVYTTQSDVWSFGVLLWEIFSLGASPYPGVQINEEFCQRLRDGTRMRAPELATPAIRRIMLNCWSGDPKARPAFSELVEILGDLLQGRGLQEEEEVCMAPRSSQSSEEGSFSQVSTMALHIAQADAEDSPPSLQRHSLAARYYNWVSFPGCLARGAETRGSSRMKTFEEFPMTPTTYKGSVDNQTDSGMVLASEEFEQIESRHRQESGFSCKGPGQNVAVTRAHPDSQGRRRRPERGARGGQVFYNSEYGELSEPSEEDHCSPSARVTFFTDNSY

Clc1ccc(Nc2nnc(Cc3ccncc3)c3ccccc23)cc1 [ZK222584, 1-(4-chloroanilino)-4-(4-pyridylmethyl)phthalazine]
inhibition of Flt-4 (Flt-4): can also inhibit | activity against c-Kit (c-Kit): has activity | inhibition of Flt-1 (Flt-1): can also inhibit
